Source: patent US20030207792A1, “Treating cancer” (priority 2002, published 2003)
Where two headings read alike, the source gives them in different places.

How the values were obtained:
Assay type in all cases: cell-based
pRb = assay: Western blot analysis of pRb level in HCT116 cells 48 h after oligonucleotide transfection; conditions: oligonucleotide 1 μM with lipofectin 19 μg/ml, extracts after 48 h, Western blot band intensity
Description: (§1) Sense and antisense phosphorothionate oligonucleotide with the sequence set out in SEQ1 and SEQ2 respectively were synthesised in a 380B DNA synthesiser. Each oligonucleotide was premixed with lipofectin reagent and diluted in DMEM (Gibco). 6 cm plates of HCT116 cells at 40-50% confluence were rinsed once with 4 ml serum free DMEM and transfected with the oligonucleotides at a final concentration of 1 μM and the lipofectin reagent at a final concentration of 19 μg/ml according to the manufacturer's instructions (Life Technologies Inc., Gaithersburg, Md.). After 4 hours, Foetal Calf Serum (Gibco) was added to a final concentration of 10%. A lipofectin only transfection was performed as a control. Cell extracts were harvested after 48 h and examined by Western blot analysis with a pRb antibody. Equal loading of protein samples was confirmed by Coomassie blue staining or by immunoreactivity with an anti-actin antibody (Sigma). The intensities of the Rb bands were quantised with an image scanner (Molecular Dynamics). […] The treatment with the sense oligonucleotide led to about a 5% reduction in the level of pRb. […] Apoptosis in the cultures 48 h after transfection was tested for using the TUNEL assay. An in situ apoptosis detection kit ApopTag (Oncor, Gaithersburg, Md.) was used as recommended by the manufacturer. […]

HCT116 cells [1] = assay: Growth curves of transfected HCT116 cultures; conditions: oligonucleotide 1 μM with lipofectin
Description: as §1

HCT116 cells [2] = assay: TUNEL assay (ApopTag) for apoptosis 48 h after transfection
Description: Sense and antisense phosphorothionate oligonucleotide with the sequence set out in SEQ1 and SEQ2 respectively were synthesised in a 380B DNA synthesiser. Each oligonucleotide was premixed with lipofectin reagent and diluted in DMEM (Gibco). 6 cm plates of HCT116 cells at 40-50% confluence were rinsed once with 4 ml serum free DMEM and transfected with the oligonucleotides at a final concentration of 1 μM and the lipofectin reagent at a final concentration of 19 μg/ml according to the manufacturer's instructions (Life Technologies Inc., Gaithersburg, Md.). After 4 hours, Foetal Calf Serum (Gibco) was added to a final concentration of 10%. A lipofectin only transfection was performed as a control. Cell extracts were harvested after 48 h and examined by Western blot analysis with a pRb antibody. Equal loading of protein samples was confirmed by Coomassie blue staining or by immunoreactivity with an anti-actin antibody (Sigma). The intensities of the Rb bands were quantised with an image scanner (Molecular Dynamics). […] The treatment with the sense oligonucleotide led to about a 5% reduction in the level of pRb. […] Apoptosis in the cultures 48 h after transfection was tested for using the TUNEL assay. An in situ apoptosis detection kit ApopTag (Oncor, Gaithersburg, Md.) was used as recommended by the manufacturer. The percentage of TUNEL positive cells was 1.5+/−1% for the lipofectin treated culture, 3+/−0.5% for the culture transfected with the sense oligonucleotide and 18+/−0.5% for the culture transfected with the antisense oligonucleotide. Thus, the sense oligonucleotide caused about a two-fold increase in apoptosis, but the antisense oligonucleotide caused over a 10-fold increase in apoptosis. As the antisense oligonucleotide inhibits growth and increases apoptosis, it is thus an effective chemotherapeutic agent.

| Substance | level of pRb expression relative to the control culture treated only with lipofectin (pRb) | effect on growth (growth curves) compared with the lipofectin-treated control culture (HCT116 cells [1]) | percentage of TUNEL positive cells (HCT116 cells [2]; HCT116 cells, 48 h after transfection, oligonucleotide 1 μM) | fold increase in apoptosis (HCT116 cells [2]; HCT116 cells, 48 h after transfection, versus lipofectin treated culture) [fold] | fold increase in apoptosis (HCT116 cells [2]) |
| --- | --- | --- | --- | --- | --- |
| 5′-GGTTTTGGGCGGCATGAC-3′ (DNA, all phosphorothioate, methylation of C not given here) [antisense oligonucleotide] | about 30% | displayed growth inhibition | 18+/−0.5% | > 10 | – |
| 5′-GTCATGCCGCCCAAAACC-3′ (phosphorothioate, further chemistry not given here) [sense oligonucleotide, reference compound] | – | – | – | – | two-fold |
